Assay [1] concerns the target T1, human VR1 (Homo sapiens, UniProt Q8NER1).
T1 construct: host or cells: cells that express human VR1 receptors (cell type not specified)
Description: Human VR1 antagonist assay (Ca2+ imaging assay using human VR1 highly expressing cells). It counts as cell-based. Conditions: intracellular Ca2+ imaging (fura-2). The source says: VR1 antagonistic activity can be determined by the Ca^2+ imaging assay using human VR1 highly expressing cells. The cells that highly express human VR1 receptors are obtainable from several different conventional methods. The one standard method is cloning from human Dorsal Root Ganglion (DRG) or kidney according to the methods such as described in the journal article; Nature, 389, pp 816-824, 1997. Alternatively VR1 receptors highly expressing human keratinocytes are also known and published in the journal article (Biochemical and Biophysical Research Communications, 291, pp 124-129, 2002). […] Furthermore, the method to up regulate human VR1 gene, which is usually a silent gene or don't produce detectable level of VR1 receptors, is also available to obtain propriety cells. Such genetic modification method was described in detail; Nat. Biotechnol., 19, pp 440-445, 2001.
The cells that express human VR1 receptors were maintained in culture flask at 37° C. in an environment containing 5% CO2 until use in the assay. The intracellular Ca^2+ imaging assay to determine VR1 antagonistic activities were done by following procedures.
The culture medium was removed from the flask and fura-2/AM fluorescent calcium indicator was added to the flask at a concentration of 5 μM in the medium. The flask was placed in CO2 incubator and incubated for 1 hour. Then the cells expressing the human VR1 receptors were detached from the flask follow by washing with phosphate buffer saline, PBS(−) and re-suspended in assay buffer. The 80 μl of aliquot of cell suspension (3.75×10^5 cells/ml) was added to the assay plate and the cells were spun down by centrifuge (950 rpm, 20° C., 3 minutes).
Compounds of the examples were tested in the Human VR1 antagonist assay described above.
The capsaicin-induced changes in the intracellular calcium concentration were monitored using FDSS 6000 (Hamamatsu Photonics, Japan), a fluorometric imaging system. The cell suspension in Krebs-Ringer HEPES (KRH) buffer (115 mM NaCl, 5.4 mM KCl, 1 mM MgSO4, 1.8 mM CaCl2, 11 mM D-Glucose, 25 mM HEPES, 0.96 mM Na2HPO4, pH 7.3) were pre-incubated with varying concentrations of the test compounds or KRH buffer (buffer control) for 15 minutes at room temperature under the dark condition. Then capsaicin solution, which gives 300 nM in assay mixture, was automatically added to the assay plate by the FDSS 6000.
The Acid-induced changes in the intracellular calcium concentration were monitored using FDSS 6000 (Hamamatsu Photonics, Japan), a fluorometric imaging system. The cell suspension in resting buffer (HBSS supplemented with 10 mM HEPES, pH 7.4) were pre-incubated with varying concentrations of the test compounds or resting buffer (buffer control) for 15 minutes at room temperature under the dark condition. The cells were automatically added the stimulating solution (HBSS supplemented with MES, final assay buffer pH5.8) by the FDSS 6000.
The monitoring of the changes in the fluorescence signals (λex=340 nm/380 nm, λem=510-520 nm) was initiated at 1 minute prior to the addition of capsaicin solution or acidic buffer and continued for 5 minute.

Assay [2] concerns the target T1, human VR1. Description: Determination of pA2 values against capsaicin stimulation (Ca2+ imaging, FLIPR TETRA, Schild analysis). In kind it is cell-based. The conditions noted are these: against capsaicin agonist dose-response. How it is done:
pA2 values of antagonists against the capsaicin agonist dose-response were determined using a Ca^2+ imaging assay with cells expressing high levels of human VR1 (for explanation of theory behind pA2 determinations, see A Pharmacological Primer: Theory, Applications, and Methods 2nd edition by Terry P. Kenakin, pp. 102-108, Academic Press, New York, 2006). Cells that express high levels of VR1 were obtained by generation of a cell line from […] with heterologous expression of VR1 under control of an inducible promoter. Specifically, cells expressing human VR1 under the control of the human cytomegalovirus immediate-early (CMV) promoter and two tetracycline operator 2 (TetO2) sites were made using the T-REx System (Invitrogen, Carlsbad, Calif., USA). Details and methods concerning this system are published (Hum. Gene Ther. 9, pp. 1939-1950, 1998; Annu. Rev. Microbiol. 48, pp. 345-369, 1994; Mol. Biol. 169, pp. 707-721, 1983). VR1 was subcloned into the T-REx System pcDNA5/TO vector (Invitrogen Cat# V1033-20) which was transfected into the T-REx System […] cell line (Invitrogen Cat# R710-07) from which a stable cell line was established which express VR1 after induction by exposure to tetracycline or doxycycline (Hum. Gene Ther. 9, pp. 1939-1950, 1998; instructions that come with purchase of products noted above). […]
For assay preparation, cells expressing human VR1 as described above were plated in 96-well plates (Becton Dickinson [BD] poly-D-lysine coated 96-well plates, cat#356692) at 55,000 cells per well in culture media (described above) that also contains 1 ug/ml doxycycline. […] Changes in the fluorescence signal (λex=470-495 nm, λem=515-575 nm) were monitored throughout the experiment before agonist addition and for at least 2 min after agonist addition (enough time for the fluorescence response to reach and then decline from the absolute maximum, agonist-induced signal attained). […]

Structures are written as SMILES.

T1 sequence (Q8NER1 whole entry): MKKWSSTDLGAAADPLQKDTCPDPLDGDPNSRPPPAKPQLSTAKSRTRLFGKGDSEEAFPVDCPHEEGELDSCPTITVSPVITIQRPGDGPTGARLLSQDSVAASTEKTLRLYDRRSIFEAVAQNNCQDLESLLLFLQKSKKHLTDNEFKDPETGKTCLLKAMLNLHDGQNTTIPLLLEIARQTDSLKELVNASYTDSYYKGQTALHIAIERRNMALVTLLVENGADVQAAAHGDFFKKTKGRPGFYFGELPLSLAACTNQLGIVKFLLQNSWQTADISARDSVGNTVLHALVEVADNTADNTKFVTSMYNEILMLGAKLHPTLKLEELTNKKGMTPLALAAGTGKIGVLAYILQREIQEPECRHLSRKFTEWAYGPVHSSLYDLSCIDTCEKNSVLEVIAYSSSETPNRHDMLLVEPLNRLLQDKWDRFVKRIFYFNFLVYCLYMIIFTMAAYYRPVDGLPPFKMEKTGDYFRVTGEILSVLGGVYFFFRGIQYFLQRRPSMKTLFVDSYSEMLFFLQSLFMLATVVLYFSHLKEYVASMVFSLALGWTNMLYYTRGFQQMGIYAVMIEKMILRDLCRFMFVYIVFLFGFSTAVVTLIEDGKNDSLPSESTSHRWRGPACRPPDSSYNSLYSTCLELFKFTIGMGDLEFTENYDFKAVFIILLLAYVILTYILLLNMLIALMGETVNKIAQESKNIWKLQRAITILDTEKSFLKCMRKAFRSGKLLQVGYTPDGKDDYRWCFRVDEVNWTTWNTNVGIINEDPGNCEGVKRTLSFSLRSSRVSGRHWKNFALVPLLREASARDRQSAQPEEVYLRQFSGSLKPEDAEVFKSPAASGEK

On human VR1 [1], `Cc1c([C@@H](C)NC(=O)c2ccc3nc(C(C)(C)C(F)(F)F)ccc3c2)cnn1CC(F)(F)F` [Example 6, N-((1R)-1-(5-methyl-1-(2,2,2-trifluoroethyl)-1H-pyrazol-4-yl)ethyl)-2-(2,2,2-trifluoro-1,1-dimethylethyl)quinoline-6-carboxamide] had an IC50 of 26.6 nM. The compound also showed a Kb on human VR1 [2] (pre-incubation 2 mins) of 1.86 nM.

`C[C@H](NC(=O)c1ccc2nc(C(C)(C)C(F)(F)F)ccc2c1)c1cnn(C)c1Cl` [Example 18] returned an IC50 against human VR1 [1] of 18 nM. At human VR1 [2] (pre-incubation 30 mins), this compound gave a Kb of 5.25 nM.

Consider `Cc1c([C@@H](C)NC(=O)c2ccc3nc(C(C)(C)C(F)(F)F)ccc3c2)cnn1C` [Example 1], for which, at human VR1 [1], the IC50 came to 25.2 nM. For the same compound, the Kb at human VR1 [2] (pre-incubation 2 mins) is 1.74 nM.

The values above are taken from patent US7964732B2, “Substituted bicyclocarboxyamide compounds” (Pfizer Inc., priority 2006, dated 2011).
